The subject of assay [1] is H1573 cells (KRAS G12A). Briefly: Cell-based pERK HTRF assay in H1573 cells (Biological Example 5). As to conditions: Homo sapiens, NCI-H1573. Here is the method:
(§1) Biological Example 5: Cell-based PERK HTRF assay in AsPC-1, SW1900, HPAC, Capan-2, RKN, H358, HCT116, KP-2, H1573, A549, MKN1, and HT1080 cells
(§2) The inhibition of ERK phosphorylation, as measured using the HTRF Advanced Phospho-ERK 1/2 (Thr202/Tyr204) Detection Assay kit (Perkin Elmer), was used to determine the effectiveness of test compounds in disrupting KRAS-driven protein/effector signaling in cells.
(§3) On day 1, cells were seeded into 96-well plates at 2.5×10^4 cells/well in 100 μL of complete growth media supplemented with 10% fetal bovine serum (FBS) and incubated at 37° C., in the presence of 5% CO2.
(§4) On day 2, cells were treated with compounds diluted in DMSO at 0.25% final DMSO concentration. Compounds were dosed in a 9-point concentration curve with three-fold dilution between concentrations. Cells were incubated in the presence of compound for two hours at 37° C. Following this treatment period, cells were harvested by aspirating the media, adding 40 μL of kit-supplied 1x lysis buffer per well, and shaking for 30 minutes at 250 rpm at room temperature.
(§5) Following cell lysis, samples were homogenized by pipetting up and down twenty times and 16 μL of cell lysate per well was transferred from the 96-well cell culture plate to two wells of a 384-well detection plate. A complete detection buffer was prepared by diluting D2 and Eu Cryptate antibodies 1:20 in kit-provided detection solution, 4 μL of complete detection buffer was then added to each well with lysate. Plates were incubated with gentle rocking for 24 hours at 4° C.
(§6) Following this incubation period, plates were centrifuged at 500×g for one minute and analyzed on a CLARIOstar plate reader. Data was imported into Microsoft Excel and the signal from the 665 nm channel was divided by the signal from the 620 nm channel. % pERK was calculated as: […]
(§7) Data was imported to the Prism software package (Graphpad) and EC50 values were calculated using the log (inhibitor) vs, response—variable slopc (Four parameters) model.
On the technique in general: Time-resolved FRET reads energy transfer from a long-lived donor to a nearby acceptor.

In assay [2] the test system is SW1900 cells (KRAS G12D). Nature of the assay: 3D Cell viability assay in SW1900 cells (Biological Example 6). It is filed as cell-based. As to conditions: Homo sapiens; SW1990 (text: SW1900, KRAS G12D) spheroids, 72 hours. Put shortly: (§8)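 EC50 values come from a four-parameter variable-slope fit of CellTiter-Glo 3D luminescence in spheroid cultures treated 72 h with a nine-point, three-fold dilution series.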

For assay [3], the system named is Capan-2 cells (KRAS G12V). Nature of the assay: Cell-based pERK HTRF assay in Capan-2 cells (Biological Example 5). Put shortly:
(§9)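 pERK1/2 (Thr202/Tyr204) HTRF read-out, 665/620 nm ratio, after lysis and 24 h antibody incubation at 4 °C; EC50 by variable-slope four-parameter model. Compounds applied for 2 h at 37 °C as 9 three-fold dilutions, 0.25% DMSO, to cells plated the day before in 10% FBS medium.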

Assay [4] has as its system A549 cells (KRAS G12S). Nature of the assay: 3D Cell viability assay in A549 cells (Biological Example 6). Type of assay: cell-based. The following applies: Homo sapiens; A549 (KRAS G12S) spheroids, 72 hours. A digest of the protocol: as §8
The test system of assay [5] is HCT116 cells (KRAS G13D). Briefly: 3D Cell viability assay in HCT116 cells (Biological Example 6). Type of assay: cell-based. The following applies: Homo sapiens, HCT-116; HCT116 (KRAS G13D) spheroids, 72 hours. A digest of the protocol: as §8
In assay [6] the test system is Capan-2 cells (KRAS G12V). Nature of the assay: 3D Cell viability assay in Capan-2 cells (Biological Example 6). The following applies: Homo sapiens; Capan-2 (KRAS G12V) spheroids, 72 hours. It is filed as cell-based. A digest of the protocol: as §8
The subject of assay [7] is KP-2 cells (KRAS G12R). Nature of the assay: 3D Cell viability assay in KP-2 cells (Biological Example 6). It is filed as cell-based. As to conditions: KP-2 (KRAS G12R) spheroids, 72 hours. Here is the method: Biological Example 6: 3D Cell viability assay in AsPC-1, SW1900, HPAC, Capan-2, RKN, H358, HCT116, KP-2, H1573, A549, MKN1, and HT1080 cells
The inhibition of cellular viability as a result of test compound treatment in a spheroid assay was measured using the CellTiter-Glow 3D Cell Viability Assay (Promega).
On Day 1, 1000 cells per well were seeded in 150 μL of complete growth media supplemented with 10% fetal bovine serum (FBS) and incubated at 37° C., in the presence of 5% CO2 in 96-well ultra-low attachment microplates (Corning) for 48 hours undisturbed to allow spheroids to form.
Following spheroid formation, cells were treated with compounds diluted in DMSO at 0.25% final DMSO concentration. Compounds were dosed in a 9-point concentration curve with three-fold dilution between concentrations. Cells were incubated in the presence of compound for 72 hours at 37° C., in the presence of 5% CO2.
Following this incubation period, the kit-provided CTG reagent was allowed to equilibrate for 30 minutes at room temperature, 150 μL of equilibrated CTG reagent was added to each well, and the plate was sealed before shaking at 250 rpm for 10 minutes at room temperature to lyse the cells, 150 μL of lysate per well was transferred to a 96-well plate and luminescence was read on a CLARIOstar plate reader.
Data was imported into the Prism software package (Graphpad) and EC50 values were calculated using the log (inhibitor) vs, response—variable slope (Four parameters) model.

Assay [8] relates to HCT116 cells (KRAS G13D). Briefly: Cell-based pERK HTRF assay in HCT116 cells (Biological Example 5). As to conditions: Homo sapiens, HCT-116. Here is the method:
as §1, §2, §3, §4, §5, §6, §7

Assay [9] has as its system SW1900 cells (KRAS G12D). Briefly: Cell-based pERK HTRF assay in SW1900 cells (Biological Example 5). Put shortly: as §9
Assay [10] deals with H1573 cells (KRAS G12A). Nature of the assay: 3D Cell viability assay in H1573 cells (Biological Example 6). It is filed as cell-based. The following applies: Homo sapiens, NCI-H1573; H1573 (KRAS G12A) spheroids, 72 hours. A digest of the protocol:
as §8

The test system of assay [11] is KP-2 cells (KRAS G12R). Briefly: Cell-based pERK HTRF assay in KP-2 cells (Biological Example 5). The following applies: KP-2 (KRAS G12R) cells. Here is the method: as §1, §2, §3, §4, §5, §6, §7
The test system of assay [12] is MKN1 cells (KRAS amplification). Briefly: 3D Cell viability assay in MKN1 cells (Biological Example 6). It is filed as cell-based. As to conditions: Homo sapiens, MKN-1; MKN (MKN1, KRAS amplification) spheroids, 72 hours. A digest of the protocol:
as §8

In another assay the test system is AsPC-1 cells (KRAS G12D). Nature of the assay: Cell-based pERK HTRF assay in AsPC-1 cells (Biological Example 5). Here is the method:
as §1, §2, §3, §4, §5, §6, §7

The next assay concerns H358 cells (KRAS G12C). Nature of the assay: 3D Cell viability assay in H358 cells (Biological Example 6). It is filed as cell-based. The following applies: Homo sapiens, NCI-H358; H358 (KRAS G12C) spheroids, 72 hours. Put shortly: as §8
Assay [13] concerns HT1080 cells (NRAS). Briefly: 3D Cell viability assay in HT1080 cells (Biological Example 6). Type of assay: cell-based. As to conditions: Homo sapiens, HT-1080; HT1080 (NRAS) spheroids, 72 hours. Put shortly: as §8
Assay [14] deals with A549 cells (KRAS G12S). Nature of the assay: Cell-based pERK HTRF assay in A549 cells (Biological Example 5). As to conditions: Homo sapiens. Here is the method:
as §1, §2, §3, §4, §5, §6, §7

Assay [15] relates to HT1080 cells (NRAS). Nature of the assay: Cell-based pERK HTRF assay in HT1080 cells (Biological Example 5). As to conditions: Homo sapiens, HT-1080. A digest of the protocol:
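Inhibition of ERK phosphorylation is measured after cells grown in 10% FBS medium receive test compound for two hours at 37° C across nine threefold-spaced concentrations. Lysates are incubated with HTRF antibody pair for 24 h at 4° C, and EC50 is derived from the 665/620 nm signal ratio.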

Another assay relates to RKN cells (KRAS G12V). Nature of the assay: 3D Cell viability assay in RKN cells (Biological Example 6). Type of assay: cell-based. The following applies: RKN (KRAS G12V) spheroids, 72 hours. A digest of the protocol:
as §8

[16] abbreviates: Homo sapiens, Capan-2, Capan-2 (KRAS G12V) cells.
Setting [17] is: Homo sapiens, SW1990, SW1990 cells (text: SW1900, KRAS G12D).
[18] abbreviates: Homo sapiens, ASPC1, AsPC-1 (KRAS G12D) cells.

The text below walks through data of patent US20260042764A1, “COMPOSITIONS AND METHODS FOR INHIBITION OF KRAS” (TheRas, Inc., priority 2022, published 2026).

Molecules are shown by their SMILES.

The term IC50 denotes the concentration at which inhibition is half-maximal. Regarding `C[C@@H]1[C@H](N(C)c2nc(OC[C@@]34CCCN3C[C@H](F)C4)nc3c(F)c(-c4ccc(F)c5sc(N)c(C#N)c45)c(C(F)(F)F)cc23)CC(=O)N1C` [Compound 440], the 50% inhibitory concentration (IC50) in the assay with H1573 cells (KRAS G12A) [1] was 100 to 1000 nM; in the assay with SW1900 cells (KRAS G12D) [2] it was no more than 100 nM; in [3] (setting [16]), 100 to 1000 nM; in the assay with A549 cells (KRAS G12S) [4], 100 to 1000 nM; with HCT116 cells (KRAS G13D) [5], greater than 1000 nM; in assay [6] it was 100 to 1000 nM. For the same molecule, the IC50 in the assay on KP-2 cells (KRAS G12R) [7] was no more than 100 nM; with HCT116 cells (KRAS G13D) [8] it was no more than 100 nM; in the assay with SW1900 cells (KRAS G12D) [9] (setting [17]) it was no more than 100 nM; with H1573 cells (KRAS G12A) [10], greater than 1000 nM; in the assay with KP-2 cells (KRAS G12R) [11], 100 to 1000 nM; in assay [12], no more than 100 nM. Also, the IC50 in the assay on AsPC-1 cells (KRAS G12D) (setting [18]) is greater than 1000 nM; with H358 cells (KRAS G12C), 100 to 1000 nM; with HT1080 cells (NRAS) [13] it was greater than 1000 nM; in the assay on A549 cells (KRAS G12S) [14] it was 100 to 1000 nM; in the assay with HT1080 cells (NRAS) [15] it was greater than 1000 nM; with RKN cells (KRAS G12V), no more than 100 nM.

With `CCN(c1nc(OC[C@@]23CCCN2C[C@H](F)C3)nc2c(F)c(-c3ccc(F)c4sc(N)c(C#N)c34)c(C(F)(F)F)cc12)[C@H]1CCN(C(=O)C(C)C)C1` [Compound 332], the IC50 in the assay with H1573 cells (KRAS G12A) [1] is no more than 100 nM; with SW1900 cells (KRAS G12D) [2], no more than 100 nM; in assay [3] (Capan-2 (KRAS G12V) cells), no more than 100 nM; with A549 cells (KRAS G12S) [4], no more than 100 nM; in the assay with HCT116 cells (KRAS G13D) [5] it was 100 to 1000 nM; in assay [6], no more than 100 nM. Moreover, the IC50 is no more than 100 nM with KP-2 cells (KRAS G12R) [7]; no more than 100 nM in the assay on HCT116 cells (KRAS G13D) [8]; no more than 100 nM with SW1900 cells (KRAS G12D) [9] (SW1990 cells (text: SW1900, KRAS G12D)); no more than 100 nM with H1573 cells (KRAS G12A) [10]; no more than 100 nM with KP-2 cells (KRAS G12R) [11]; no more than 100 nM in [12]. Also, the IC50 is no more than 100 nM with AsPC-1 cells (KRAS G12D) (AsPC-1 (KRAS G12D) cells); no more than 100 nM in the assay with H358 cells (KRAS G12C); greater than 1000 nM in the assay on HT1080 cells (NRAS) [13]; no more than 100 nM in the assay with A549 cells (KRAS G12S) [14]; greater than 1000 nM in the assay with HT1080 cells (NRAS) [15]; no more than 100 nM in the assay on RKN cells (KRAS G12V).

For `N#Cc1c(N)sc2c(F)ccc(-c3c(C(F)(F)F)cc4c(N5CC6CC(C5)O6)nc(OC[C@@]56CCCN5C[C@H](F)C6)nc4c3F)c12` (single isomer, unassigned) [Compound 275], the IC50 with H1573 cells (KRAS G12A) [1] was no more than 100 nM; with SW1900 cells (KRAS G12D) [2] it was no more than 100 nM; in assay [3] (setting [16]), no more than 100 nM; in the assay on A549 cells (KRAS G12S) [4], no more than 100 nM; in the assay with HCT116 cells (KRAS G13D) [5], 100 to 1000 nM; in assay [6], no more than 100 nM. The IC50 in the assay with KP-2 cells (KRAS G12R) [7] is no more than 100 nM; with HCT116 cells (KRAS G13D) [8], no more than 100 nM; with SW1900 cells (KRAS G12D) [9] (setting [17]), no more than 100 nM; in the assay on H1573 cells (KRAS G12A) [10], no more than 100 nM; in the assay on KP-2 cells (KRAS G12R) [11], 100 to 1000 nM; in [12], no more than 100 nM. Besides, the IC50 in the assay with AsPC-1 cells (KRAS G12D) (setting [18]) was 100 to 1000 nM; in the assay on H358 cells (KRAS G12C), no more than 100 nM; in the assay with HT1080 cells (NRAS) [13], greater than 1000 nM; in the assay with A549 cells (KRAS G12S) [14], no more than 100 nM; with HT1080 cells (NRAS) [15] it was greater than 1000 nM; in the assay with RKN cells (KRAS G12V) it was no more than 100 nM.
